Laboratory results from US8927559B2, “Quinazolinone-type compounds as CRTH2 antagonists” (Merck Sharp & Dohme Corp., priority 2010, dated 2015).
Values joined by “and” are separate entries in the source; they are usually repeats but may differ in a detail not shown here. Equal entries are not always repeated.

Biological target: T1, CRTH2 receptor (hCRTH2) (Homo sapiens, UniProt Q9Y5Y4)
T1 construct: expressed in transfected cells; host or cells: HEK cells (HEK-hCRTH2 cell line), membranes
T1 sequence (Q9Y5Y4 1-395): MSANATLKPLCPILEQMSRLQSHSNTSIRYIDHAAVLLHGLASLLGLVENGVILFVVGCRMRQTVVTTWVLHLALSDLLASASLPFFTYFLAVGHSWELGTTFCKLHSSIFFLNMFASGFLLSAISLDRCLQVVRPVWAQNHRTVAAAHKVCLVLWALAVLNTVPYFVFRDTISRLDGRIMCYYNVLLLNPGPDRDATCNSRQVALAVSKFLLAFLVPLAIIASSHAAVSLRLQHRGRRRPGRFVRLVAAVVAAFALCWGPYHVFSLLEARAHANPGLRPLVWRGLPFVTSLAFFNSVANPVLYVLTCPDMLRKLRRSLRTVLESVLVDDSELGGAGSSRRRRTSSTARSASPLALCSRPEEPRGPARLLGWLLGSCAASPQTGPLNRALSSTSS
Experiment: Radioligand binding assay ([3H]PGD2 competition, membranes of HEK-hCRTH2 cell line)
Settings: 3.0 nM [3H]PGD2, HEK-hCRTH2 membranes, 60 min, room temperature; read-out: Ki
How it was run: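 Membranes (8-20 μg protein) from HEK cells expressing human CRTH2 were incubated with [3H]PGD2 and competitor in 1% DMSO for 60 min at room temperature. Non-specific binding was defined with excess PGD2. Bound radioactivity was separated by filtration and counted by melt-on scintillation.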

C[C@@]1(c2cn3ccccc3n2)CC(c2ccc3c(=O)n(-c4ccc(F)cc4)c(CCCCC(=O)O)nc3c2)=NO1 [Example 178] and CC1(c2cc3ccccn3n2)CC(c2ccc3c(=O)n(-c4ccc(F)cc4)c(CCCCC(=O)O)nc3c2)=NO1 (stereo not shown) [Example 193] cannot be ordered by Ki: ≤ 10 nM for the first, ≤ 10 nM for the second.

C[C@@]1(c2nc3ccc(F)cc3[nH]2)CC(c2ccc3c(=O)n(-c4ccc(F)cc4)c(CCCCC(=O)O)nc3c2)=NO1 [Example 182] and C[C@]1(c2nc3ccc(F)cc3[nH]2)CC(c2ccc3c(=O)n(-c4ccc(F)cc4)c(CCCCC(=O)O)nc3c2)=NO1 [Example 183] cannot be ordered by Ki: ≤ 10 nM for the first, 10 to 50 nM for the second.

C[C@]1(c2nc3ccc(F)cc3o2)CC(c2ccc3c(=O)n(-c4ccc(F)cc4)c(CCCCC(=O)O)nc3c2)=NO1 [Example 185] and C[C@@]1(c2nc3ccc(Cl)cc3[nH]2)CC(c2ccc3c(=O)n(-c4ccc(F)cc4)c(CCCCC(=O)O)nc3c2)=NO1 [Example 186] cannot be ordered by Ki: 10 to 50 nM for the first, ≤ 10 nM for the second.

C[C@]1(C(=O)Nc2cc(F)ccc2O)CC(c2ccc3c(=O)n(-c4ccc(F)cc4)c(CCCCC(=O)O)nc3c2)=NO1 [Example 189] and CC1(C(=O)Nc2ccc(F)cc2O)CC(c2ccc3c(=O)n(-c4ccc(F)cc4)c(CCCCC(=O)O)nc3c2)=NO1 (stereo not shown) [Example 229] cannot be ordered by Ki: ≤ 10 nM for the first, ≤ 10 nM for the second.

C[C@@]1(C(=O)Nc2ccccc2O)CC(c2ccc3c(=O)n(-c4ccc(F)cc4)c(CCCCC(=O)O)nc3c2)=NO1 [Example 191] and C[C@@]1(C(=O)Nc2ccc(F)cc2O)CC(c2ccc3c(=O)n(-c4ccc(F)cc4)c(CCCCC(=O)O)nc3c2)=NO1 [Example 231] cannot be ordered by Ki: ≤ 10 nM for the first, ≤ 10 nM for the second.

CC(C)(C)OC(=O)C1(C)CC(c2ccc3c(=O)n(-c4ccc(F)cc4)c(CCCCC(=O)O)nc3c2)=NO1 (stereo not shown) [Example 192] and CC1(C(=O)O)CC(c2ccc3c(=O)n(-c4ccc(F)cc4)c(CCCCC(=O)O)nc3c2)=NO1 (stereo not shown) [Example 200] cannot be ordered by Ki: ≤ 10 nM for the first, 10 to 50 nM for the second.

CC1(c2nc3cc(F)c(F)cc3[nH]2)CC(c2ccc3c(=O)n(-c4ccc(F)cc4)c(CCCCC(=O)O)nc3c2)=NO1 (stereo not shown) [Example 194] and C[C@]1(c2nc3cc(F)c(F)cc3[nH]2)CC(c2ccc3c(=O)n(-c4ccc(F)cc4)c(CCCCC(=O)O)nc3c2)=NO1 [Example 208] cannot be ordered by Ki: ≤ 10 nM for the first, ≤ 10 nM for the second.

Cc1cccc2nc(C3(C)CC(c4ccc5c(=O)n(-c6ccc(F)cc6)c(CCCCC(=O)O)nc5c4)=NO3)[nH]c12 (stereo not shown) [Example 195] and Cc1cccc2[nH]c([C@]3(C)CC(c4ccc5c(=O)n(-c6ccc(F)cc6)c(CCCCC(=O)O)nc5c4)=NO3)nc12 [Example 203] cannot be ordered by Ki: ≤ 10 nM for the first, ≤ 10 nM for the second.

C[C@@]1(c2nc3cc(C(F)(F)F)ccc3[nH]2)CC(c2ccc3c(=O)n(-c4ccc(F)cc4)c(CCCCC(=O)O)nc3c2)=NO1 [Example 196] and CC1(c2nc3cc(F)ccc3[nH]2)CC(c2ccc3c(=O)n(-c4ccc(Cl)cc4)c(CCCCC(=O)O)nc3c2)=NO1 (stereo not shown) [Example 205] cannot be ordered by Ki: ≤ 10 nM for the first, ≤ 10 nM for the second.

CC1(c2nc3cc(Cl)c(F)cc3[nH]2)CC(c2ccc3c(=O)n(-c4ccc(F)cc4)c(CCCCC(=O)O)nc3c2)=NO1 (stereo not shown) [Example 197] and C[C@@]1(c2nc3cc(Cl)c(F)cc3[nH]2)CC(c2ccc3c(=O)n(-c4ccc(F)cc4)c(CCCCC(=O)O)nc3c2)=NO1 [Example 209] cannot be ordered by Ki: ≤ 10 nM for the first, ≤ 10 nM for the second.

CC1(c2nc3cc(F)cc(F)c3[nH]2)CC(c2ccc3c(=O)n(-c4ccc(F)cc4)c(CCCCC(=O)O)nc3c2)=NO1 (stereo not shown) [Example 198] and C[C@@]1(c2nc3c(F)cc(F)cc3[nH]2)CC(c2ccc3c(=O)n(-c4ccc(F)cc4)c(CCCCC(=O)O)nc3c2)=NO1 [Example 213] cannot be ordered by Ki: ≤ 10 nM for the first, ≤ 10 nM for the second.

CC1(C(=O)N2Cc3ccccc3C2)CC(c2ccc3c(=O)n(-c4ccc(F)cc4)c(CCCCC(=O)O)nc3c2)=NO1 (stereo not shown) [Example 199] and C[C@@]1(C(=O)N2Cc3ccccc3C2)CC(c2ccc3c(=O)n(-c4ccc(F)cc4)c(CCCCC(=O)O)nc3c2)=NO1 [Example 238] cannot be ordered by Ki: ≤ 10 nM for the first, 10 to 50 nM for the second.

C[C@@]1(c2cc3ccccn3n2)CC(c2ccc3c(=O)n(-c4ccc(F)cc4)c(CCCCC(=O)O)nc3c2)=NO1 [Example 201] and C[C@]1(c2cc3ccccn3n2)CC(c2ccc3c(=O)n(-c4ccc(F)cc4)c(CCCCC(=O)O)nc3c2)=NO1 [Example 202] cannot be ordered by Ki: ≤ 10 nM for the first, 10 to 50 nM for the second.

CC1(c2nc3cc(Cl)ccc3[nH]2)CC(c2ccc3c(=O)n(-c4ccc(Cl)cc4)c(CCCCC(=O)O)nc3c2)=NO1 (stereo not shown) [Example 206] and C[C@@]1(c2nc3ccc(Cl)cc3[nH]2)CC(c2ccc3c(=O)n(-c4ccc(Cl)cc4)c(CCCCC(=O)O)nc3c2)=NO1 [Example 222] cannot be ordered by Ki: ≤ 10 nM for the first, ≤ 10 nM for the second.

C[C@]1(c2nc3cc(Cl)c(F)cc3[nH]2)CC(c2ccc3c(=O)n(-c4ccc(F)cc4)c(CCCCC(=O)O)nc3c2)=NO1 [Example 210] and CC1(c2nc3cc(F)c(F)cc3[nH]2)CC(c2ccc3c(=O)n(-c4ccc(Cl)cc4)c(CCCCC(=O)O)nc3c2)=NO1 (stereo not shown) [Example 219] cannot be ordered by Ki: 10 to 50 nM for the first, ≤ 10 nM for the second.

CC1(C(=O)N2CCc3ccccc32)CC(c2ccc3c(=O)n(-c4ccc(F)cc4)c(CCCCC(=O)O)nc3c2)=NO1 (stereo not shown) [Example 211] and C[C@@]1(C(=O)N2CC[C@H](c3ccccc3)C2)CC(c2ccc3c(=O)n(-c4ccc(F)cc4)c(CCCCC(=O)O)nc3c2)=NO1 [Example 239] cannot be ordered by Ki: ≤ 10 nM for the first, 10 to 50 nM for the second.

CC1(C(=O)N2CCCCC2)CC(c2ccc3c(=O)n(-c4ccc(F)cc4)c(CCCCC(=O)O)nc3c2)=NO1 (stereo not shown) [Example 212] and C[C@@]1(C(=O)NCc2ccccc2)CC(c2ccc3c(=O)n(-c4ccc(F)cc4)c(CCCCC(=O)O)nc3c2)=NO1 [Example 234] fall in the same range of Ki: 10 to 50 nM for the first, 10 to 50 nM for the second.

C[C@@]1(C(=O)N[C@H]2c3ccccc3C[C@H]2O)CC(c2ccc3c(=O)n(-c4ccc(F)cc4)c(CCCCC(=O)O)nc3c2)=NO1 [Example 215] and C[C@]1(C(=O)N[C@@H]2c3ccccc3C[C@@H]2O)CC(c2ccc3c(=O)n(-c4ccc(F)cc4)c(CCCCC(=O)O)nc3c2)=NO1 [Example 216] cannot be ordered by Ki: ≤ 10 nM for the first, 10 to 50 nM for the second.

C[C@@]1(c2nc3ccc(F)cc3[nH]2)CC(c2ccc3c(=O)n(-c4ccc(Cl)cc4)c(CCCCC(=O)O)nc3c2)=NO1 [Example 220] and C[C@@]1(c2nc3cc(F)c(F)cc3[nH]2)CC(c2ccc3c(=O)n(-c4ccc(Cl)cc4)c(CCCCC(=O)O)nc3c2)=NO1 [Example 224] cannot be ordered by Ki: ≤ 10 nM for the first, ≤ 10 nM for the second.

C[C@]1(c2nc3cc(F)c(F)cc3[nH]2)CC(c2ccc3c(=O)n(-c4ccc(Cl)cc4)c(CCCCC(=O)O)nc3c2)=NO1 [Example 225] and C[C@@]1(c2cccc(Br)c2)CC(c2ccc3c(=O)n(-c4ccc(F)cc4)c(CCCCC(=O)O)nc3c2)=NO1 [Example 235] cannot be ordered by Ki: 10 to 50 nM for the first, ≤ 10 nM for the second.

CC1(c2ncc3ccccn23)CC(c2ccc3c(=O)n(-c4ccc(F)cc4)c(CCCCC(=O)O)nc3c2)=NO1 (stereo not shown) [Example 226] and C[C@@]1(c2ncc3ccccn23)CC(c2ccc3c(=O)n(-c4ccc(F)cc4)c(CCCCC(=O)O)nc3c2)=NO1 [Example 227] fall in the same range of Ki: 10 to 50 nM for the first, 10 to 50 nM for the second.

CC1(c2cnc3ccccc3n2)CC(c2ccc3c(=O)n(-c4ccc(F)cc4)c(CCCCC(=O)O)nc3c2)=NO1 (stereo not shown) [Example 230] and C[C@]1(c2cccc(Br)c2)CC(c2ccc3c(=O)n(-c4ccc(F)cc4)c(CCCCC(=O)O)nc3c2)=NO1 [Example 236] fall in the same range of Ki: 10 to 50 nM for the first, 10 to 50 nM for the second.

C[C@@]1(C(=O)NCc2ccc(C#N)cc2)CC(c2ccc3c(=O)n(-c4ccc(F)cc4)c(CCCCC(=O)O)nc3c2)=NO1 [Example 237] and N#Cc1ccc(Cc2nc(-c3ccc4c(=O)n(-c5ccc(F)cc5)c(CCCCC(=O)O)nc4c3)no2)cc1 [Example 243] fall in the same range of Ki: 10 to 50 nM for the first, 10 to 50 nM for the second.

COc1ccc(Cc2nc(-c3ccc4c(=O)n(-c5ccc(F)cc5)c(CCCCC(=O)O)nc4c3)no2)cc1 [Example 240] and O=C(O)CCCCc1nc2cc(-c3noc(CCc4ccc(F)cc4)n3)ccc2c(=O)n1-c1ccc(F)cc1 [Example 241] cannot be ordered by Ki: ≤ 10 nM for the first, ≤ 10 nM for the second.

O=C(O)CCCCc1nc2cc(-c3noc(C4Cc5ccccc5C4)n3)ccc2c(=O)n1-c1ccc(F)cc1 [Example 242] and O=C(O)CCCCc1nc2cc(-c3noc(C4CCc5ccccc5C4)n3)ccc2c(=O)n1-c1ccc(F)cc1 (stereo not shown) [Example 246] cannot be ordered by Ki: ≤ 10 nM for the first, ≤ 10 nM for the second.

O=C(O)CCCCc1nc2cc(-c3noc(C4CCCc5ccccc54)n3)ccc2c(=O)n1-c1ccc(F)cc1 (stereo not shown) [Example 244] and O=C(O)CCCCc1nc2cc(-c3noc(C4CCc5ccccc5C4)n3)ccc2c(=O)n1-c1ccc(F)cc1 (stereo not shown) [Example 247] cannot be ordered by Ki: ≤ 10 nM for the first, 10 to 50 nM for the second.

O=C(O)CCCCc1nc2cc(-c3noc(C4CCCc5ccccc54)n3)ccc2c(=O)n1-c1ccc(F)cc1 (stereo not shown) [Example 245] was tested, and the Ki was 10 to 50 nM.

C[C@@]1(c2nc3ccc(F)cc3o2)CC(c2ccc3c(=O)n(-c4ccc(F)cc4)c(CCCCC(=O)O)nc3c2)=NO1 [Example 184] was tested, and the Ki was ≤ 10 nM and 5.7 nM.
With C[C@@]1(C(=O)Nc2cc(F)ccc2O)CC(c2ccc3c(=O)n(-c4ccc(F)cc4)c(CCCCC(=O)O)nc3c2)=NO1 [Example 190] the Ki was 50 to 100 nM and 96.2 nM.
In the case of C[C@@]1(c2nc3cc(F)c(F)cc3[nH]2)CC(c2ccc3c(=O)n(-c4ccc(F)cc4)c(CCCCC(=O)O)nc3c2)=NO1 [Example 207], the Ki is reported as 10 to 50 nM and 17 nM.

Same assay, conditions: Ki, 3.0 nM [3H]PGD2, HEK-hCRTH2 membranes, 60 min, room temperature

C[C@@]1(c2nc3ccccc3s2)CC(c2ccc3c(=O)n(-c4ccc(F)cc4)c(CCCCC(=O)O)nc3c2)=NO1 [Example 180] and C[C@]1(c2nc3ccccc3s2)CC(c2ccc3c(=O)n(-c4ccc(F)cc4)c(CCCCC(=O)O)nc3c2)=NO1 [Example 181] cannot be ordered by Ki: ≤ 10 nM for the first, ≤ 10 nM for the second.
